Values after ≈ are worked out from the molar mass of the structure shown.
Legend:
[1] = Changes in MIC under different conditions: agar MIC; type: cell-based; conditions: strain not given
Clostridium difficile = experiment: Agar dilution MIC, anaerobes; type: cell-based; conditions: Clostridioides difficile, single isolates, anaerobic agar dilution; read-out: MIC Clostridium difficile
Bacteroides fragilis = experiment: Agar dilution MIC, anaerobes; type: cell-based; conditions: Bacteroides fragilis, single isolates, anaerobic agar dilution; read-out: MIC Bacteroides fragilis
[2] = test system: Porphyromonas asaccharolytica; experiment: Agar dilution MIC, anaerobes; type: cell-based; conditions: Porphyromonas asaccharolytica; single isolate, anaerobic agar dilution; read-out: MIC Porphyromonas asaccharolytica
Fusobacterium nucleatum = experiment: Agar dilution MIC, anaerobes; type: cell-based; conditions: single isolates, anaerobic agar dilution
Eubacterium leutum = experiment: Agar dilution MIC, anaerobes; type: cell-based; conditions: Eubacterium, single isolates, anaerobic agar dilution; read-out: MIC Eubacterium leutum
Fusobacterium necrogenes = experiment: Agar dilution MIC, anaerobes; type: cell-based; conditions: Fusobacterium necrogenes; single isolate, anaerobic agar dilution; read-out: MIC Fusobacterium necrogenes
[3] = test system: Mycobacterium tuberculosis
Strep. pyog. ATCC 19615 = experiment: MIC, agar incorporation method; conditions: Streptococcus pyogenes, ATCC19615, read-out: MIC S. pyogenes 19615
G +ve bacteria = experiment: Summary of in vitro activity (MIC)
E. faecalis = experiment: Summary of in vitro activity (MIC); conditions: Enterococcus faecalis
[4] = test system: Mycobacterium tuberculosis; experiment: microbe, parasite or virus in culture; conditions: 504 h
[5] = test system: MRSE 879 adherent bacteria; experiment: Sintered glass adherent bacteria model; conditions: MRSE 879, sintered glass adherent bacteria model

In the case of CC(=O)NC[C@H]1CN(c2ccc(N3CCOCC3)c(F)c2)C(=O)O1 [Linezolid], the “Agar MIC” value [1] is reported as 2 µg/mL, the MIC (Clostridium difficile) is reported as 2 µg/mL (≈ 5.93 µM) and the MIC (Bacteroides fragilis) is reported as 4 µg/mL (≈ 11.9 µM). The MIC [2] was 1 µg/mL (≈ 2.96 µM), the MIC (Fusobacterium nucleatum; Fusobacterium nucleatum, read-out: MIC Fusobacterium nucleatum) was 0.5 µg/mL (≈ 1.48 µM) and the “MIC Fusobacterium nucleatum” value (Fusobacterium nucleatum) was 1 µg/mL (≈ 2.96 µM). For the same compound, the MIC (Eubacterium leutum) was 1 µg/mL (≈ 2.96 µM), the MIC (Fusobacterium necrogenes) was 0.5 µg/mL (≈ 1.48 µM) and the G.M. [3] was 8 µg/mL. For the same compound, the MIC (Strep. pyog. ATCC 19615) was 2 µg/mL (≈ 5.93 µM), the MIC50 (G +ve bacteria) was 2 µg/mL (≈ 5.93 µM) and the MIC90 (G +ve bacteria) was 4 µg/mL (≈ 11.9 µM). For the same compound, the MIC50 (E. faecalis) was 4 µg/mL (≈ 11.9 µM), the MIC90 (E. faecalis) was 16 µg/mL (≈ 47.4 µM) and the MIC (E. faecalis; read-out: Geometric Mean of in vitro activity (MIC)) was 4 µg/mL (≈ 11.9 µM). For the same compound, the MIC50 [4] was 8 µg/mL (≈ 23.7 µM), the MIC90 [4] was 64 µg/mL (≈ 190 µM) and the “concentration which would kill adherent bacteria” value [5] was 32 µg/mL.
